Test results taken from patent US20200031811A1, “SUBSTITUTED MONO- AND POLYAZANAPHTHALENE DERIVATIVES AND THEIR USE” (Basilea Pharmaceutica International AG, priority 2015, published 2020).

Legend:
[1] = molecular target: T1, MNK1 (Homo sapiens, UniProt Q9BUB5); assay: MNK inhibition assay (Z-Lyte kinase assay, Ser/Thr 7 peptide); type: biochemical; conditions: for IC50: recombinant GST-MNK1, 3 hours at 31° C.
T1 construct: purchased Life Technologies or Carna Biosciences PV6023 or 02-145; host or cells: baculovirus infected insect cells
Excerpt: For the measurement of the activity of the MNK1 kinase the Z-Lyte kinase assay system was used. The kinase activity of MNK1 can be quantified with the Z-Lyte kinase assay kit Ser/Thr 7 peptide (Life Technologies PV3180). The kit was utilized according to the instructions of the provider. A recombinant GST-MNK1 fusion protein produced in and purified from baculovirus infected insect cells was used as enzyme source (GST-MNK1 Life Technologies PV6023 or Carna Biosciences 02-145). It was verified that both sources of the MNK1 enzyme gave similar IC50 values with several compounds. The MNK1 enzyme assay was performed in 384 well round bottom black microtiter plates (Corning 3676). The kinase reaction was performed for 3 hours at 31° C. As instructed by the provider of the kit the amount of enzyme was chosen such that ˜30% of the substrate peptide was phosphorylated in control wells containing buffer only. The MNK1 inhibiting activity of compounds was tested by adding the compounds to the kinase reaction at a concentration of 10000, 5000, 2000, 1000, 500, 200, 100, 50 nM. Compounds with strong MNK1 inhibition were tested at 20, 10, 5, 2, 1 and 0.5 nM in addition. Each compound concentration was tested at least in duplicate. The % phosphorylation of the substrate peptide at each compound concentration was calculated as described in the assay manual. The fluorescent signals were recordes on Biotek Cytation 3 microplate reader. The IC50, the concentration that reduced substrate phosphorylation by 50% if compared to buffer only wells, was calculated with the Grafit 6 software (Erythacus software).

[2] = system: human pancreatic cancer cell line MiaPaCa2 (ATCC CRL-1420); assay: Cell growth assay (CellTiterGlo, 72 hours); type: cell-based; conditions: for inhibition at 100 µM: MIA PaCa-2, at 100 μM; for inhibition at 100 µM / inhibition at 50 µM: read-out: Inhibition of MiaPaCa growth at indicated concentration; for IC50: MIA PaCa-2, MiaPaCa2 cells, 72 hours, read-out: IC50 MiaPaCa; for inhibition at 50 µM: MIA PaCa-2, at 50 μM
Procedure: The inhibition of cell growth by the compounds was tested by exposing the human pancreatic cancer cell line MiaPaCa2 (ATCC CRL-1420) to the compounds. The assay was performed in 384 well clear bottom white microtiter plates (Greiner #781098). Each well was seeded with 10^3 cells in 20 μl of Dulbecco's modified Eagle's medium (Sigma D6796) supplied with 10% fetal calf scrum (Sigma F7524), 2.5% horse serum (Sigma H0146), 1% Penicillin-Streptomycin (Sigma P0781), 1% MEM nonessential amino acid solution 100× (Sigma M71459) and 1% 200 mM L-Glutamine (Sigma G7513) culture medium. After overnight incubation at 37° C. in 5% CO2 the compounds were added in the following concentrations: 100, 50, 20, 10, 5, 2, 1, 0.5, 0.2 and 0.1 μM. Each compound concentration was tested in quadruplicate. The incubation was then continued for 72 hours. After 72 hours the growth of the cells was assessed by the addition of the CellTiterGlo reagent (Promega G9242) as instructed by the provider. The luminescent signal was recorded on a SpectraMax M2 microplate reader. The signal obtained in wells containing cells cultivated in the absence of compound was set to 100% growth after subtracting the signal obtained in medium only wells. The % growth in each well was calculated by subtracting the medium only value and dividing through the 100% growth value. The IC50 for cell growth, the concentration of compound at which cell growth was reduced to 50%, was calculated with the GraFit6 software (Erythacus software).

[3] = read-out: Inhibition of MNK1 activity at indicated concentration

T1 sequence (Q9BUB5 whole entry): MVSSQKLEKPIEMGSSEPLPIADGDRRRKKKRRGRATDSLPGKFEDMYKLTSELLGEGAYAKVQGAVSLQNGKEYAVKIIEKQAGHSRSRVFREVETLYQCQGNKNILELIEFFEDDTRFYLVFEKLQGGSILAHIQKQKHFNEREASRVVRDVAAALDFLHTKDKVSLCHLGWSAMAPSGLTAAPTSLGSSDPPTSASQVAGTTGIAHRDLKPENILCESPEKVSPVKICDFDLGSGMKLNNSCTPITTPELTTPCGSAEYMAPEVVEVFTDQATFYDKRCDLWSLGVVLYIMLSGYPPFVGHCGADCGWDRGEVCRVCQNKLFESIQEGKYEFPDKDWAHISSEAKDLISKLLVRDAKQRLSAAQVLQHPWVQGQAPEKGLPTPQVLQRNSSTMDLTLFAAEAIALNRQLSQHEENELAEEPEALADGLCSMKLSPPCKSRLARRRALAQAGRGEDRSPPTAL

Structure (SMILES) | IC50 [1] | IC50 [2] | also measured
NC1CCN(Cc2ccc3nncc(-c4ccccc4)c3c2)CC1 [Example 84] | 3730 nM | – | inhibition at 100 µM [2]: 33%
NCCCOCc1ccc2c(N)ncc(-c3ccc(NC(=O)Nc4ccccc4)cc3)c2c1 [Example 112, 1-[4-[1-Amino-6-(3-aminopropoxymethyl)-4-isoquinolyl]phenyl]-3-phenyl-urea] | – | 43800 nM | inhibition at 1 µM [1, 3]: 19%
Cc1cc(N)cc[n+]1Cc1ccc2cncc(-c3cc4ccccc4o3)c2c1 [Example 125, 1-[[4-(Benzofuran-2-yl)-6-isoquinolyl]methyl]-2-methyl-pyridin-1-ium-4-amine] | 52 nM | 4040 nM | –
Nc1cc[n+](Cc2ccc3cncc(-c4ccc(O)cc4)c3c2)cc1 [Example 122] | 28 nM | – | inhibition at 100 µM [2]: 37%
Nc1ncc(-c2ccc(O)cc2)c2cc(CN3CCC(N)CC3)ccc12 [Example 94] | 221 nM | – | inhibition at 50 µM [2]: 27%
NC1CCN(Cc2ccc3cncc(-c4ccc(NC(=O)NC5CC5)cc4)c3c2)CC1 [Example 118] | 422 nM | – | inhibition at 100 µM [2]: 48%
Nc1cccc(NCc2ccc3cncc(-c4cc5ccccc5o4)c3c2)c1 [Example 48] | 1150 nM | 25000 nM | –
COC(=O)c1ccc(-c2cncc3ccc(CN4CCC(N)CC4)cc23)cc1 [Example 11] | – | 10100 nM | inhibition at 1 µM [1, 3]: 33%
Nc1ccc(NCc2ccc3cncc(-c4cc5ccccc5o4)c3c2)cc1 [Example 50] | 384 nM | 5590 nM | –
NCCOc1ccc2cncc(-c3cc4ccccc4o3)c2c1 [Example 102, 2-[[4-(Benzofuran-2-yl)-6-isoquinolyl]oxy]ethanamine] | 1050 nM | 7000 nM | –
NC1CCN(Cc2ccc3cncc(-c4cccnc4)c3c2)CC1 [Example 14] | – | – | inhibition at 1 µM [1, 3]: 34%; inhibition at 50 µM [2]: 52%
Cn1nccc1Nc1ccc2cncc(-c3cc4ccccc4o3)c2c1 [Example 98, 4-(Benzofuran-2-yl)-N-(2-methylpyrazol-3-yl)isoquinolin-6-amine] | – | 9880 nM | inhibition at 1 µM [1, 3]: 40%
Oc1cnccc1NCc1ccc2cncc(-c3cc4ccccc4o3)c2c1 [Example 73] | 5 nM | 15000 nM | –
COC(=O)c1cccc(-c2cncc3ccc(CN4CCC(N)CC4)cc23)c1 [Example 12] | – | – | inhibition at 10 µM ([1]; at 10 μM, read-out: Inhibition of MNK1 activity at indicated concentration): 92%; inhibition at 100 µM [2]: 60%
CC(=O)Nc1cccc(-c2cncc3ccc(CN4CCC(N)CC4)cc23)c1 [Example 19] | – | 29700 nM | inhibition at 1 µM [1, 3]: 39%
NC1CCN(Cc2ccc3cncc(-c4ccccc4)c3c2)CC1 [Example 7] | 744 nM | 17500 nM | –
CN1CCN(Cc2ccc3cncc(-c4cc5ccccc5o4)c3c2)CC1 [Example 47] | 1120 nM | 10900 nM | –
Oc1ccc(-c2cncc3ccc(CNC4CCNCC4)cc23)cc1 [Example 40] | 263 nM | – | inhibition at 100 µM [2]: 48%
CN(C)CCNc1ccc2cncc(-c3cc4ccccc4o3)c2c1 [Example 99, N-[4-(Benzofuran-2-yl)-6-isoquinolyl]-N′,N′-dimethyl-ethane-1,2-diamine] | – | 4390 nM | inhibition at 1 µM [1, 3]: 60%
NCCCOCc1ccc2c(N)ncc(-c3ccc(Cl)c(Cl)c3)c2c1 [Example 111] | 1150 nM | 8320 nM | –

Second part, led by results:

IC50 [1] | IC50 [2] | Structure (SMILES) | also measured
882 nM | 11100 nM | COc1cccc(-c2cncc3ccc(CN4CCC(N)CC4)cc23)c1 [Example 198] | –
268 nM | 20000 nM | c1ccc2oc(-c3cncc4ccc(OCc5ccncc5)cc34)cc2c1 [Example 146, 4-(Benzofuran-2-yl)-6-(4-pyridylmethoxy)isoquinoline] | –
28 nM | 6800 nM | c1ccc2oc(-c3cncc4ccc(CNc5ccnc6ncccc56)cc34)cc2c1 [Example 262, N-[[4-(Benzofuran-2-yl)-6-isoquinolyl]methyl]-1,8-naphthyridin-4-amine] | –
100 nM | 3200 nM | NC1CCN(Cc2cc(Cl)c3cncc(-c4ccco4)c3c2)CC1 [Example 239] | –
212 nM | 8670 nM | NC1CCN(Cc2ccc3cncc(-c4ccc5c(c4)OCO5)c3c2)CC1 [Example 199] | –
142 nM | 18000 nM | c1ccc2oc(-c3cncc4ccc(CN5CCNCC5)nc34)cc2c1 [Example 302] | –
296 nM | 3800 nM | Nc1ncc(-c2cc3ccccc3o2)c2cc(O[C@H]3CC[C@H](N)CC3)cc(Cl)c12 [Example 318, trans-6-(4-Aminocyclohexoxy)-4-(benzofuran-2-yl)-8-chloro-isoquinolin-1-amine] | –
143 nM | 23100 nM | Nc1ccc(NCc2ccc3cncc(-c4cc5ccccc5o4)c3c2)cn1 [Example 129] | –
340 nM | 3930 nM | COc1cc2c(N)ncc(-c3ccccc3)c2cc1CN1CCC(N)CC1 [Example 267, 6-[(4-Amino-1-piperidyl)methyl]-7-methoxy-4-phenyl-isoquinolin-1-amine] | –
105 nM | 5760 nM | N[C@H]1CC[C@H](Oc2cc(Cl)c3cncc(-c4ccccc4)c3c2)CC1 [Example 311] | –
17 nM | 1560 nM | Nc1cc[n+](Cc2ccc3c(N)ncc(-c4cc5ccccc5o4)c3c2)cc1 [Example 152, 6-[(4-Aminopyridin-1-ium-1-yl)methyl]-4-(benzofuran-2-yl)isoquinolin-1-amine] | –
241 nM | 4610 nM | COc1cc(CN2CCC(N)CC2)cc2c(-c3ccc(Cl)cc3)cncc12 [Example 288] | –
17 nM | 8060 nM | N[C@@H]1CCN(Cc2ccc3cncc(-c4cc5ccccc5o4)c3c2)C[C@@H]1F [Example 206] | –
160 nM | 4230 nM | Nc1ncc(-c2ccc(Cl)cc2)c2cc(CN3CCC(N)CC3)cc(Cl)c12 [Example 284] | –
89 nM | 8360 nM | NC1CCN(Cc2ccc3cncc(-c4cc5ccccc5o4)c3n2)CC1 [Example 300, 1-[[8-(Benzofuran-2-yl)-1,6-naphthyridin-2-yl]methyl]piperidin-4-amine] | –
3010 nM | 3060 nM | Nc1ncc(-c2ccc(Cl)c(Cl)c2)c2cc(CN3CCC(N)CC3)ccc12 [Example 217] | –
234 nM | 9080 nM | NC1CCN(Cc2cc(Cl)c3cncc(-c4ccc(F)c(F)c4)c3c2)CC1 [Example 238] | –
270 nM | 11900 nM | NC1CCN(Cc2ccc3cncc(-c4ccc5occc5c4)c3c2)CC1 [Example 172] | –
847 nM | 6620 nM | Nc1ncc2ccc(CN3CCC(N)CC3)cc2c1-c1cc2ccccc2o1 [Example 164, 6-[(4-Amino-1-piperidyl)methyl]-4-(benzofuran-2-yl)isoquinolin-3-amine] | –
96 nM | – | c1coc(-c2cncc3ccc(CN4CCNCC4)cc23)c1 [Example 225] | inhibition at 50 µM [2]: 65%
934 nM | 13700 nM | CO[C@H]1CN(Cc2ccc3cncc(-c4cc5ccccc5o4)c3c2)CC[C@H]1N [Example 270, (3S,4R/3R,4S)-1-[[4-(Benzofuran-2-yl)-6-isoquinolyl]methyl]-3-methoxy-piperidin-4-amine] | –
1590 nM | 17500 nM | Nc1ncc2ccc(CN3CCNCC3)cc2c1-c1cc2ccccc2o1 [Example 260, 4-(Benzofuran-2-yl)-6-(piperazin-1-ylmethyl)isoquinolin-3-amine] | –
10 nM | 1960 nM | N[C@H]1CC[C@H](Nc2ccc3cncc(-c4cc5ccccc5o4)c3n2)CC1 [Example 304, trans-N4-[8-(benzofuran-2-yl)-1,6-naphthyridin-2-yl]cyclohexane-1,4-diamine] | –
50 nM | 7880 nM | N[C@H]1CC[C@@H](C(=O)Nc2ccc3cncc(-c4cc5ccccc5o4)c3c2)CC1 [Example 157] | –
